{"source": "patent US10857160B2", "about": "“Oil-in-water nanoemulsion composition of clobetasol” (LABORATORIOS SALVAT, S.A., priority 2017, dated 2020)", "tested_on": "normotensive albino New Zealand rabbits", "experiment": "Study of effect on intraocular pressure (IOP)", "type": "in vivo, rabbit", "conditions": "intra-cameral administration, dexamethasone 0.1% (positive control)", "method": "Control samples: • Positive control: dexamethasone 0.1%. • Negative control: 0.9% sodium chloride saline solution Material and Method • The laboratory animals used were normotensive albino New Zealand rabbits. The rabbits were adapted to periods of light/dark (12/12 hours) needed to adjust and maintain stable the diurnal cycle of the intraocular pressure (IOP). • Rabbits were distributed in different groups: the positive control group (positive control sample), the negative control group (negative control sample) and two test groups (two test samples). • The treatment involved the injection of dexamethasone into the anterior chamber, meanwhile for the rest of groups; each animal was topically instilled, in each eye with the control sample or the test composition 4 times a day for 15 days. • Measurement of IOP of the groups was performed twice a day. After the instillation in each animal, it was observed the possibility of adverse effects of the respective compound on the ocular surface. Results", "data": [{"smiles": "C[C@@H]1C[C@H]2[C@@H]3CCC4=CC(=O)C=C[C@]4(C)[C@@]3(F)[C@@H](O)C[C@]2(C)[C@@]1(O)C(=O)CO", "note": "[dexamethasone]", "values": [{"measurement": "elevation of the intraocular pressure", "result": "statistically significant elevation"}]}]}
